Laboratory results: PubChem BioAssay (NCI)
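Grown in 96-well plates, cells were treated for 48 hours with each compound at five concentrations. Insufficient inhibition: endpoint recorded as highest concentration tested. Here, GI50 denotes the concentration required for 50% inhibition of growth. At the TGI there is no net growth.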

Columns and labels:
Experiment in all cases: NCI tumour cell line growth inhibition, 48 h
LOX IMVI melanoma = tested on: LOX IMVI melanoma
HOP-62 NSCLC = tested on: HOP-62 NSCLC
786-0 renal = tested on: 786-0 renal
NCI-H460 lung = tested on: NCI-H460 lung
NCI-H23 lung = tested on: NCI-H23 lung
OVCAR-5 ovarian = tested on: OVCAR-5 ovarian
HS 578T breast = tested on: HS 578T breast
NCI-H226 lung = tested on: NCI-H226 lung
UO-31 renal = tested on: UO-31 renal
OVCAR-4 ovarian = tested on: OVCAR-4 ovarian
NCI-H522 lung = tested on: NCI-H522 lung
SK-MEL-5 melanoma = tested on: SK-MEL-5 melanoma
SK-OV-3 ovarian = tested on: SK-OV-3 ovarian
K-562 leukemia = tested on: K-562 leukemia
HCC-2998 colon = tested on: HCC-2998 colon
HCT-116 colon = tested on: HCT-116 colon
M14 melanoma = tested on: M14 melanoma
SF-539 CNS = tested on: SF-539 CNS
BT-549 breast = tested on: BT-549 breast
T-47D breast = tested on: T-47D breast
RPMI-8226 leukemia = tested on: RPMI-8226 leukemia
MCF7 breast = tested on: MCF7 breast
U251 CNS = tested on: U251 CNS
UACC-62 melanoma = tested on: UACC-62 melanoma
DU-145 prostate = tested on: DU-145 prostate
A549 NSCLC = tested on: A549 NSCLC
HT29 colon = tested on: HT29 colon
SK-MEL-28 melanoma = tested on: SK-MEL-28 melanoma
OVCAR-8 ovarian = tested on: OVCAR-8 ovarian
HCT-15 colon = tested on: HCT-15 colon
KM12 colon = tested on: KM12 colon
SR leukemia = tested on: SR leukemia
SN12C renal = tested on: SN12C renal
OVCAR-3 ovarian = tested on: OVCAR-3 ovarian
RXF 393 renal = tested on: RXF 393 renal
HOP-92 NSCLC = tested on: HOP-92 NSCLC
EKVX NSCLC = tested on: EKVX NSCLC
SK-MEL-2 melanoma = tested on: SK-MEL-2 melanoma
SNB-75 CNS = tested on: SNB-75 CNS
MDA-MB-231 breast = tested on: MDA-MB-231 breast
SF-295 CNS = tested on: SF-295 CNS
SW-620 colon = tested on: SW-620 colon
PC-3 prostate = tested on: PC-3 prostate
COLO 205 colon = tested on: COLO 205 colon
ACHN renal = tested on: ACHN renal
CCRF-CEM leukemia = tested on: CCRF-CEM leukemia
UACC-257 melanoma = tested on: UACC-257 melanoma
MDA-MB-435 = tested on: MDA-MB-435
MOLT-4 leukemia = tested on: MOLT-4 leukemia
A498 renal = tested on: A498 renal
SF-268 CNS = tested on: SF-268 CNS
SNB-19 CNS = tested on: SNB-19 CNS
CAKI-1 renal = tested on: CAKI-1 renal
NCI/ADR-RES ovarian = tested on: NCI/ADR-RES ovarian
IGROV1 ovarian = tested on: IGROV1 ovarian
MALME-3M melanoma = tested on: MALME-3M melanoma
HL-60(TB) leukemia = tested on: HL-60(TB) leukemia

CC1(C)CCC(S(=O)(=O)c2ccc3c(c2)/C(=N\O)c2cc(S(=O)(=O)N4CCN(c5ccc(F)cc5O)CC4)ccc2-3)CC1
GI50 (LOX IMVI melanoma): 21.3 nM | TGI (LOX IMVI melanoma): 50.4 nM | GI50 (HOP-62 NSCLC): 101 nM | TGI (HOP-62 NSCLC): 237 nM | GI50 (786-0 renal): 186 nM | TGI (786-0 renal): 415 nM | GI50 (NCI-H460 lung): 66.1 nM | TGI (NCI-H460 lung): 223 nM | GI50 (NCI-H23 lung): 230 nM | TGI (NCI-H23 lung): 583 nM | GI50 (OVCAR-5 ovarian): 164 nM | TGI (OVCAR-5 ovarian): 367 nM | GI50 (HS 578T breast): 163 nM | TGI (HS 578T breast): 448 nM | GI50 (NCI-H226 lung): 206 nM | TGI (NCI-H226 lung): 512 nM | GI50 (UO-31 renal): 188 nM | TGI (UO-31 renal): 460 nM | GI50 (OVCAR-4 ovarian): 63.5 nM | TGI (OVCAR-4 ovarian): 263 nM | GI50 (NCI-H522 lung): 147 nM | TGI (NCI-H522 lung): 290 nM | GI50 (SK-MEL-5 melanoma): 179 nM | TGI (SK-MEL-5 melanoma): 326 nM | GI50 (SK-OV-3 ovarian): 109 nM | TGI (SK-OV-3 ovarian): 240 nM | GI50 (K-562 leukemia): 50.8 nM | TGI (K-562 leukemia): 188 nM | GI50 (HCC-2998 colon): 104 nM | TGI (HCC-2998 colon): 262 nM | GI50 (HCT-116 colon): 33.2 nM | TGI (HCT-116 colon): 119 nM | GI50 (M14 melanoma): 35.2 nM | TGI (M14 melanoma): 144 nM | GI50 (SF-539 CNS): 127 nM | TGI (SF-539 CNS): 270 nM | GI50 (BT-549 breast): 133 nM | TGI (BT-549 breast): 286 nM | GI50 (T-47D breast): 104 nM | TGI (T-47D breast): 234 nM | GI50 (RPMI-8226 leukemia): 126 nM | TGI (RPMI-8226 leukemia): 1150 nM | GI50 (MCF7 breast): 159 nM | TGI (MCF7 breast): 453 nM | GI50 (U251 CNS): 105 nM | TGI (U251 CNS): 223 nM | GI50 (UACC-62 melanoma): 71.7 nM | TGI (UACC-62 melanoma): 221 nM | GI50 (DU-145 prostate): 51.7 nM | TGI (DU-145 prostate): 284 nM | GI50 (A549 NSCLC): 68 nM | TGI (A549 NSCLC): 218 nM | GI50 (HT29 colon): 44 nM | TGI (HT29 colon): 182 nM | GI50 (SK-MEL-28 melanoma): 129 nM | TGI (SK-MEL-28 melanoma): 293 nM | GI50 (OVCAR-8 ovarian): 86.9 nM | TGI (OVCAR-8 ovarian): 402 nM | GI50 (HCT-15 colon): 153 nM | TGI (HCT-15 colon): 445 nM | GI50 (KM12 colon): 47.9 nM | TGI (KM12 colon): 220 nM | GI50 (SR leukemia): 29.3 nM | TGI (SR leukemia): 80.2 nM | GI50 (SN12C renal): 683 nM | GI50 (OVCAR-3 ovarian): 117 nM | TGI (OVCAR-3 ovarian): 285 nM | GI50 (RXF 393 renal): 157 nM | TGI (RXF 393 renal): 314 nM | GI50 (HOP-92 NSCLC): 219 nM | TGI (HOP-92 NSCLC): 504 nM | GI50 (EKVX NSCLC): 152 nM | TGI (EKVX NSCLC): 515 nM | GI50 (SK-MEL-2 melanoma): 73 nM | TGI (SK-MEL-2 melanoma): 204 nM | GI50 (SNB-75 CNS): 162 nM | TGI (SNB-75 CNS): 324 nM | GI50 (MDA-MB-231 breast): 72.1 nM | TGI (MDA-MB-231 breast): 289 nM | GI50 (SF-295 CNS): 176 nM | TGI (SF-295 CNS): 394 nM | GI50 (SW-620 colon): 46.7 nM | TGI (SW-620 colon): 168 nM | GI50 (PC-3 prostate): 108 nM | TGI (PC-3 prostate): 314 nM | GI50 (COLO 205 colon): 54.8 nM | TGI (COLO 205 colon): 183 nM | GI50 (ACHN renal): 282 nM | TGI (ACHN renal): 1340 nM | GI50 (CCRF-CEM leukemia): 93 nM | TGI (CCRF-CEM leukemia): 370 nM | GI50 (UACC-257 melanoma): 165 nM | TGI (UACC-257 melanoma): 491 nM | GI50 (MDA-MB-435): 107 nM | TGI (MDA-MB-435): 251 nM | GI50 (MOLT-4 leukemia): 76.2 nM | TGI (MOLT-4 leukemia): 242 nM | GI50 (A498 renal): 840 nM | TGI (A498 renal): 2630 nM | GI50 (SF-268 CNS): 109 nM | TGI (SF-268 CNS): 286 nM | GI50 (SNB-19 CNS): 211 nM | TGI (SNB-19 CNS): 486 nM | GI50 (CAKI-1 renal): 157 nM | TGI (CAKI-1 renal): 351 nM | GI50 (NCI/ADR-RES ovarian): 443 nM | TGI (NCI/ADR-RES ovarian): 2630 nM | GI50 (IGROV1 ovarian): 149 nM | TGI (IGROV1 ovarian): 346 nM | GI50 (MALME-3M melanoma): 141 nM | TGI (MALME-3M melanoma): 295 nM | GI50 (HL-60(TB) leukemia): 98.6 nM | TGI (HL-60(TB) leukemia): 288 nM
